Data published in patent publication US8450352B2, “Thiazole compounds and their use for inhibiting phosphodiesterase 4, TNF-α, and IL-4” (Otsuka Pharmaceutical Co., Ltd., priority 2004, dated 2013).
Where a name gives a salt, the structure may show the parent alone.

tested on: not given; assay: not given; settings: not given

First: CCOc1ccc(-c2nc(/C=C/C(=O)c3ccccc3O)cs2)cc1OCC (as salt: hydrobromid) [Example 15]
Second: CCOc1ccc(-c2nc(/C=C/C(=O)c3ccccc3[N+](=O)[O-])cs2)cc1OCC [Example 27]
The melting point of the first is lower: 126 to 127 °C for the first, 142 to 143 °C for the second.

`COc1ccc(-c2nc(/C=C/C(=O)c3cc(O)cc(O)c3)cs2)cc1OC` (as salt: hydrochloride) [Example 6] and `COc1ccc(-c2nc(/C=C/C(=O)c3ccc(O)c(O)c3)cs2)cc1OC` (as salt: hydrochloride) [Example 7] cannot be ordered by melting point: 164 to 168 °C for the first, 162 to 165 °C for the second.

First: CCOc1ccc(-c2nc(/C=C/C(=O)c3cc(Cl)c(N)c(Cl)c3)cs2)cc1OCC (as salt: hydrochloride) [Example 12]
Second: CCOc1ccc(-c2nc(/C=C/C(=O)c3ccc(Cl)c(Cl)c3)cs2)cc1OCC [Example 29]
The melting point of the first is higher: 165 to 168 °C for the first, 138 to 139 °C for the second.

First: CCOc1ccc(-c2nc(CCC(=O)c3ccc(O)c(O)c3)cs2)cc1OCC (as salt: hydrochloride) [Example 92]
Second: CCOc1ccc(-c2nc(CCC(=O)c3ccccc3O)cs2)cc1OCC [Example 98]
The melting point of the first is higher: 153.2 to 153.8 °C for the first, 113.7 to 114.9 °C for the second.

First: CCOc1ccc(-c2nc(/C=C/C(=O)c3ccc(OC(C)=O)c(OC(C)=O)c3)cs2)cc1OCC [Example 8]
Second: CCOc1ccc(-c2nc(/C=C/C(=O)c3ccc(OC)c(OC)c3)cs2)cc1OCC [Example 13]
The melting point of the first is lower: 139 to 140 °C for the first, 152 to 153 °C for the second.

Compared with `CCOc1ccc(-c2nc(/C=C/C(=O)c3c(O)cc(O)cc3O)cs2)cc1OCC` [Example 9], `CCOc1ccc(-c2nc(/C=C/C(=O)c3ccc(O)c(C(=O)O)c3)cs2)cc1OCC` [Example 19] is higher in melting point: 188 to 189 °C for the first, 195 to 196 °C for the second.

First: CCOc1ccc(-c2nc(/C=C/C(=O)c3ccc(O)cc3)cs2)cc1OCC [Example 10]
Second: CCOc1ccc(-c2nc(/C=C/C(=O)c3ccc(Cl)cc3)cs2)cc1OCC [Example 21]
The melting point of the first is higher: 133 to 134 °C for the first, 131 to 133 °C for the second.

First: CCOc1ccc(-c2nc(/C=C/C(=O)c3cc(OC)c(OC)c(OC)c3)cs2)cc1OCC [Example 11]
Second: CCOc1cc(-c2nc(/C=C/C(=O)c3cc(OC)ccc3OC)cs2)ccc1OC [Example 40]
The melting point of the first is higher: 155 to 156 °C for the first, 79 to 82 °C for the second.

First: CCOc1ccc(-c2nc(/C=C/C(=O)c3ccccc3)cs2)cc1OCC [Example 14]
Second: CCOc1ccc(-c2nc(/C=C/C(=O)c3cccc(O)c3)cs2)cc1OCC [Example 16]
The melting point of the first is lower: 129 to 130 °C for the first, 144.5 to 146 °C for the second.

First: CCOc1ccc(-c2nc(/C=C/C(=O)c3ccc(C(=O)OC)cc3)cs2)cc1OCC [Example 17]
Second: CCOc1ccc(-c2nc(/C=C/C(=O)c3ccc(C(C)=O)cc3)cs2)cc1OCC [Example 23]
The melting point of the first is higher: 150 to 151 °C for the first, 128 to 129 °C for the second.

Compared with `CCOc1ccc(-c2nc(/C=C/C(=O)c3ccc(C#N)cc3)cs2)cc1OCC` [Example 18], `CCOc1ccc(-c2nc(/C=C/C(=O)c3ccc(F)cc3)cs2)cc1OCC` [Example 25] is lower in melting point: 164 to 167 °C for the first, 116 to 121 °C for the second.

First: CCOc1ccc(-c2nc(/C=C/C(=O)c3ccc(O)c(C(=O)OC)c3)cs2)cc1OCC [Example 20]
Second: CCOc1ccc(-c2nc(/C=C/C(=O)c3ccccc3C(=O)OC)cs2)cc1OCC [Example 33]
The melting point of the first is higher: 161.3 to 162.8 °C for the first, 132 to 133 °C for the second.

Compared with `COc1ccc(-c2nc(/C=C/C(=O)c3cc(C(C)(C)C)c(O)c(C(C)(C)C)c3)cs2)cc1OC` [Example 22], `COc1ccc(-c2nc(/C=C/C(=O)c3ccc(O)cc3)cs2)cc1OC` [Example 37] is lower in melting point: 228 to 230 °C for the first, 174 to 177 °C for the second.

`CCOc1ccc(-c2nc(/C=C/C(=O)c3cccc([N+](=O)[O-])c3)cs2)cc1OCC` [Example 24] and `CCOc1ccc(-c2nc(/C=C/C(=O)c3ccc([N+](=O)[O-])cc3)cs2)cc1OCC` [Example 32] cannot be ordered by melting point: 125 to 126 °C for the first, 125 to 127 °C for the second.

First: CCOc1ccc(-c2nc(/C=C/C(=O)c3ccc(C)cc3)cs2)cc1OCC [Example 26]
Second: CCOc1ccc(-c2nc(/C=C/C(=O)c3ccc(N)cc3)cs2)cc1OCC [Example 30]
The melting point of the first is lower: 124 to 125.5 °C for the first, 148 to 150 °C for the second.

First: CCOc1ccc(-c2nc(/C=C/C(=O)c3ccc(NC(C)=O)cc3)cs2)cc1OCC [Example 28]
Second: CCOc1ccc(C(=O)/C=C/c2csc(-c3ccc(OCC)c(OCC)c3)n2)cc1 [Example 31]
The melting point of the first is higher: 199.5 to 201.5 °C for the first, 130 to 135 °C for the second.

First: COc1ccc(-c2nc(/C=C/C(=O)c3ccc(O)c(C(=O)O)c3)cs2)cc1OC [Example 39]
Second: COc1ccc(-c2nc(CCC(=O)c3ccc(OC(C)=O)c(OC(C)=O)c3)cs2)cc1OC [Example 94]
The melting point of the first is higher: 227.4 to 228 °C for the first, 128 to 128.5 °C for the second.

First: CCOc1ccc(-c2nc(CCC(=O)c3nccs3)cs2)cc1OCC [Example 90, 3-[2-(3,4-diethoxyphenyl)thiazole-4-yl]-1-thiazole-2-yl-1-propanone]
Second: CCOc1ccc(-c2nc(CCC(=O)c3ccccc3F)cs2)cc1OCC [Example 101]
The melting point of the first is higher: 93.1 to 94.4 °C for the first, 82.5 to 83.5 °C for the second.

First: CCOc1ccc(C(=O)CCc2csc(-c3ccc(OC)c(OC)c3)n2)cc1OCC [Example 93]
Second: CCOc1ccc(-c2nc(CCC(=O)c3cc(OC)ccc3OC)cs2)cc1OCC [Example 95]
The melting point of the first is higher: 141.3 to 142.4 °C for the first, 97.8 to 98.5 °C for the second.

Compared with `CCOc1ccc(-c2nc(CCC(=O)c3ccccc3Br)cs2)cc1OCC` [Example 103], `CCOc1ccc(-c2nc(CCC(=O)c3ccccc3Cl)cs2)cc1OCC` [Example 104] is lower in melting point: 66.1 to 67.9 °C for the first, 64.4 to 65.1 °C for the second.

`CCOc1ccc(-c2nc(CCC(=O)c3cc(Cl)ccc3OC)cs2)cc1OCC` [Example 108] and `CCOc1ccc(-c2nc(CCC(=O)c3ccccc3C(=O)OC)cs2)cc1OCC` [Example 240, methyl 2-{3-[2-(3,4-diethoxyphenyl)thiazole-4-yl]propionyl}benzoate] cannot be ordered by melting point: 90.2 to 92 °C for the first, 91.7 to 92.9 °C for the second.

Compared with `CCOc1ccc(-c2nc(CCC(O)c3ccccc3OC)cs2)cc1OCC` (centres unmarked) [Example 186, 3-[2-(3,4-diethoxyphenyl)thiazole-4-yl]-1-(2-methoxyphenyl)-1-propanol], `CCOc1ccc(CC(=O)Cc2csc(-c3ccc(OC)c(OC)c3)n2)cc1OCC` [Example 243, 3-[2-(3,4-dimethoxyphenyl)thiazole-4-yl]-1-(3,4-diethoxyphenyl)propanone] is higher in melting point: 78.2 to 79 °C for the first, 141.3 to 142.4 °C for the second.

With `COc1ccc(-c2nc(CC(=O)Cc3ccc(OC(C)=O)c(OC(C)=O)c3)cs2)cc1OC` [Example 242, 3-[2-(3,4-dimethoxyphenyl)thiazole-4-yl]-1-(3,4-diacetoxyphenyl)propanone] the melting point was 128 to 128.5 °C.

target: T1, human PDE4D (HPDE4D) (Homo sapiens, UniProt Q08499); assay: Confirmatory test for phosphodiesterase (PDE) 4 inhibitory activity; type: biochemical; settings: concentration that inhibits the PDE4 activity by 50%; PDE4D enzyme solution from transfected COS-7 cells, [3H]cAMP substrate
T1 construct: made in house; host or cells: COS-7 cells (African green monkey kidney), transient transfection; soluble supernatant of the homogenate
T1 sequence (Q08499 whole entry): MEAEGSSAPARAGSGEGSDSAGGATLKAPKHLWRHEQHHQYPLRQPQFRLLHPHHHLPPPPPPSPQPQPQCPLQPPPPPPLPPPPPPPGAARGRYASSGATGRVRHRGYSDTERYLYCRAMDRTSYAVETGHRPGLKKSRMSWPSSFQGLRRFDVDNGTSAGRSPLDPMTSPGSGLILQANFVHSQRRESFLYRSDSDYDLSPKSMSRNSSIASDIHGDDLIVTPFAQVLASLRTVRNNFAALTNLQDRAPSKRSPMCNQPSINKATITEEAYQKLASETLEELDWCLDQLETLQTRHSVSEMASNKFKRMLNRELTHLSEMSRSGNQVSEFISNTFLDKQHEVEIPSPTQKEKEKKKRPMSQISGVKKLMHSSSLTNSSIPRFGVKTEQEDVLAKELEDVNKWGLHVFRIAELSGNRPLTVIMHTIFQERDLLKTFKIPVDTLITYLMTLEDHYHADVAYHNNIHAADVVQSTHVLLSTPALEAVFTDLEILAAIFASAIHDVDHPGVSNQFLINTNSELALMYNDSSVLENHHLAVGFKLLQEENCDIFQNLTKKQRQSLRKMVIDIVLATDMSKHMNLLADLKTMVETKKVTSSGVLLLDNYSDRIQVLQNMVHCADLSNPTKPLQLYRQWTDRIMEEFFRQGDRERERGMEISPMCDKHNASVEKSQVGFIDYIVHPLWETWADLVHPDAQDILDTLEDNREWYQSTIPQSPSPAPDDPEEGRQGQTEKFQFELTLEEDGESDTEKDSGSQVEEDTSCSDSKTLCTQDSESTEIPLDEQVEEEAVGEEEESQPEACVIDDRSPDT
Description: Confirmatory Test for Phosphodiesterase (PDE) 4 Inhibitory Activity
(1) Mass Preparation of Plasmids
Plasmids containing genes coding for human PDE4D (HPDE4D) (stored in Otsuka America Pharmaceutical, Inc., Maryland Research Laboratories) were transformed into Escherichia coli, and mass cultured. The plasmids were then purified using EndoFree™ Plasmid Mix Kit (Qiagen).
(2) Mass expression and purification of PDE4D
African green monkey kidney-derived COS-7 cells (RCB 0539) were subcultured in a DMEM medium containing 100 units/ml penicillin, […] streptomycin and 10% FBS. The plasmids prepared in (1) were transfected into the cells, using LipofectAMINE™ 2000 Reagent (hereinafter referred to as “LF2000”, a product of Invitroge), according to the attached protocol. For comparison, pcDNA3.1 was transfected as a control vector. The COS-7 cells were inoculated into 10 cm diameter petri dishes on the day before transfection, so that the cells reached 90% confluence on the day of transfection. Twelve micrograms of the plasmids diluted with 0.9 ml of OPTI-MEM I (Invitrogen) (a plasmid solution; Solution A) and 30 μl of LF2000 diluted with 0.9 ml of OPTI-MEM I (a LF2000 solution; Solution B) were prepared per petri dish, and allowed to stand at room temperature for 5 minutes. Solutions A and B were then mixed together and allowed to stand at room temperature for 20 minutes. The mixture was added to the cultured cells, and incubation was performed overnight at 37° C. in an atmosphere of 5% CO2. The culture medium was changed on the following day, incubation was continued overnight, and the cells were collected by the following procedure. First, the cells were washed once with PBS (Sigma), and 2 ml of Trypsin-EDTA solution (Sigma) was added per petri dish, spread over the dish and removed. The cells were then allowed to stand at 37° C. for 2 to 3 minutes, separated from the petri dish and suspended in a medium. The suspension was placed in a centrifuge tube, and centrifuged at 200×g and 4° C. for 5 minutes. The supernatant was then removed. The cells were further washed with PBS and stored at −80° C. A KHEM buffer (50 mM Hepes, 50 mM KCl, 10 mM EGTA, 1.92 mM MgCl2, pH 7.2) containing 1 mM DTT, 40 μg/ml PMST, 156 μg/ml benzamidine, 1 μg/ml apotinin, 1 μg/ml leupeptin, 1 μg/ml pepstatin A, and 1 μg/ml antipain was added to the cells that had been stored, and the resulting mixture was placed in a glass homogenizer and homogenized on ice. The cell suspension was centrifuged at 100×g and 4° C. for 5 minutes, and the supernatant was further centrifuged at 100,000×g for 1 hour. Thereafter, the supernatant was dispensed into new tubes as a PDE4D enzyme solution, and stored in an ultra-low-temperature freezer. The protein concentration of the PDE4D enzyme solution was then measured.
(3) Determination of Dilution Factor of PDE4D Enzyme Solution
The PDE4D enzyme solution prepared in (2) was diluted 10-, 25-, 50-, 100-, 200-, 400- and 800-fold with 20 mM Tris-HCl (pH 7.4), and the PDE4D activities of the diluted enzyme solutions were measured by the method described in (4) to determine the optimum dilution factor to obtain a PDE4D enzyme solution in which degraded cAMP constituted 10 to 30% of the total cAMP.
(4) Measurement of PDE4D Inhibitory Activity
The necessary amount of each test substance was weighed out and dissolved in 100% DMSO to a concentration of 10 mM. The resulting solutions were stored in a freezer as test substance stock solutions. Before the inhibitory activity measurement, the stock solutions were melted, diluted 2-fold with 100% DMSO to a concentration of 5 mM, and further diluted with 100% DMSO to obtain test substance solutions with 10 graded concentrations. Each test substance solution was added to a 1.2 ml tube containing 23 μl of 20 mM Tris-HCl (pH 7.4). […]

Going from `CCOc1ccc(-c2nc(CCC(=O)c3ncccc3OCC)cs2)cc1OCC` [Example 87, 3-[2-(3,4-diethoxyphenyl)thiazole-4-yl]-1-(3-ethoxypyridine-2-yl)-1-propanone] to `CCOc1ccc(-c2nc(CCC(O)c3ncccc3OC)cs2)cc1OCC` (centres unmarked) [Example 187, 3-[2-(3,4-diethoxyphenyl)thiazole-4-yl]-1-(3-methoxypyridine-2-yl)-1-propanol dihydrochloride], the IC50 rises from 0.2 nM to 6.6 nM (33-fold). The first is the more potent here.
